Test results from publication PMC6753678, “Fueling Open Innovation for Malaria Transmission-Blocking Drugs: Hundreds of Molecules Targeting Early Parasite Mosquito Stages” (Frontiers in Microbiology, 2019).

Test system: P. berghei ookinete development
Conditions: for % inhibition, Replicate A / % inhibition, Replicate B: primary screen at 1 μM; for IC50: read-out: Pb Ookinete development assay IC50, dose response confirmation

Row | Structure (SMILES) | % inhibition, Replicate A [%] | % inhibition, Replicate B [%] | IC50 [µM]
1 | Cc1nc(SCC(=O)N2CCCC2=O)c2c(C)c(C)sc2n1 [TCMDC-123558] | 50.04 | 22.22 | –
2 | CC(C)Oc1ccc2c(c1)OC(c1ccccc1)(C(F)(F)F)NC2=O (stereo not drawn) [TCMDC-123633] | 24.49 | 54.58 | –
3 | O=C(Nc1ccccc1O)c1ccc(S(=O)(=O)c2ccc(Cl)cc2)cc1 [TCMDC-123689] | 23.88 | 50.54 | –
4 | CCCC(=O)Nc1ccc(Cl)c(NC(=O)COc2cc(C)ccc2C(C)C)c1 [TCMDC-123706] | 60.12 | 20.94 | –
5 | Cl.O=C(CNC1CCCCC1)c1ccc(O)c(O)c1 [TCMDC-123961] | 31.52 | 68.95 | –
6 | CC1Cc2ccccc2N1S(=O)(=O)c1cc(OCC(F)(F)F)ccc1OCC(F)(F)F (stereo not drawn) [TCMDC-124044] | 52.34 | 21.81 | –
7 | CCOC(=O)c1cn(CC)c2cc(N3CCCCCC3)c(F)cc2c1=O [TCMDC-124160] | 101.92 | 113.32 | –
8 | c1ccc(-c2csc(Nc3nc4cc5c(cc4s3)OCO5)n2)nc1 [TCMDC-124550] | 83.78 | 59.07 | –
9 | Cc1ccc(CN2CCC(C(=O)Nc3ccc(-c4cc5ccccc5[nH]4)cc3)CC2)o1 [TCMDC-124634] | 35.55 | 65.49 | –
10 | COc1cc(OC)cc(C(=O)Nc2ccc(Nc3nc(C)cc(N(C)C)n3)cc2)c1 [TCMDC-124726] | 52.96 | 25.99 | –
11 | Cc1ccc(-c2noc(COc3ccccc3C(=O)NC3CCCC3)n2)cc1 [TCMDC-124748] | 70.37 | 89.43 | –
12 | Cc1cc(C(=O)NC2CCN(CC3(c4ccc(Cl)cc4)CCC3)CC2)on1 [TCMDC-124833] | 70.28 | 68.63 | –
13 | O=C(CSc1nn(-c2ccccc2)c(=S)s1)c1c[nH]c2ccccc12 [TCMDC-124894] | 61.81 | 32.04 | –
14 | COc1cc(CN2CCN(c3ccnc(N(C)C4CCN(C)CC4)n3)CC2)cc(Cl)c1O [TCMDC-125096] | 51.09 | 24.20 | –
15 | CCN(CC)CCCC(C)Nc1c2ccc(Cl)cc2nc2ccc(OC)cc12.Cl.O (stereo not drawn) [TCMDC-125480] | 33.29 | 58.69 | –
16 | Br.CCc1ccccc1OCCCON1C(=N)N=C(N)NC1(C)C [TCMDC-131305] | 58.24 | 46.89 | –
17 | CCSc1ccccc1COc1c(C)nc(N)nc1N.Cl [TCMDC-131359] | 61.82 | 19.87 | –
18 | N=C1NC(=N)N(OCCCCCCON2C(=N)NC(=N)NC2C=Cc2ccccc2)C(C=Cc2ccccc2)N1 (stereo not drawn) [TCMDC-131602] | 52.81 | 32.33 | –
19 | Br.CC1(C)N=C(N)N=C(N)N1OCCc1ccc2ccccc2c1 [TCMDC-131755] | 66.00 | 52.02 | –

Row | Structure (SMILES) | % inhibition, Replicate A [%] | % inhibition, Replicate B [%] | IC50 [µM]
20 | CC(C)c1cccc(C(C)C)c1NC(=O)NNC(=O)c1ccc(CCN2CCC(c3nc(COCC(F)(F)F)c(-c4ccc(F)cc4)o3)CC2)cc1 [TCMDC-131908] | 61.66 | 23.60 | –
21 | CN1CCC(C(=O)Nc2ccc(-c3cccc(-c4nc5cc(F)ccc5[nH]4)c3)cc2)CC1 [TCMDC-132180] | 7.14 | 53.61 | –
22 | CS(=O)(=O)NCCCNCc1cccc(-c2ccc(-c3nc4ccccc4[nH]3)s2)c1.O=C(O)C(F)(F)F [TCMDC-133088] | 41.67 | 56.04 | –
23 | Cc1cccc2nc(-c3ccc(-c4ccc(NC(=O)NCc5cccc(F)c5)cc4)cc3)[nH]c12 [TCMDC-133294] | 56.07 | 54.12 | –
24 | COc1ccc(Nc2nc(C)cc(NC3CCCC3)n2)cc1 [TCMDC-133465] | 51.72 | 31.38 | –
25 | Cc1cc(Nc2cccc(C#N)c2)nc(Nc2ccccc2C)n1 [TCMDC-133471] | 56.49 | 36.05 | –
26 | O=C(Nc1cccc(C(F)(F)F)c1)c1cccc(S(=O)(=O)NCC2CCCN2CC2CCCCC2)c1.O=C(O)C(F)(F)F (stereo not drawn) [TCMDC-133687] | 11.95 | 57.11 | –
27 | Cc1cccc2nc(-c3ccc(-c4cccc(CN5CCCC(N)C5)c4)s3)[nH]c12.O=C(O)C(F)(F)F (stereo not drawn) [TCMDC-133874] | 50.71 | 12.43 | –
28 | COc1ccc(-c2cc(C(=O)Nc3ccc4[nH]c(-c5ccccc5)nc4c3)[nH]n2)cc1.O=C(O)C(F)(F)F [TCMDC-134399] | 46.43 | 56.04 | –
29 | COc1ccccc1-c1cccc(CNC2CCN(CC3Cn4c(=O)ccc5ccc(F)c3c54)CC2)c1.O=C(O)C(F)(F)F (stereo not drawn) [TCMDC-134411] | 72.27 | 57.51 | –
30 | COc1ccc2nccc(N3CCC(NCCNCc4ccc5c(n4)NC(=O)CS5)C3)c2n1.Cl (stereo not drawn) [TCMDC-134649] | 18.73 | 51.52 | –
31 | O=C(NCc1cccs1)[C@H](Cc1ccccc1)Nc1ccnc(NCC2CCCCC2)n1.O=C(O)C(F)(F)F [TCMDC-134708] | 21.89 | 53.00 | –
32 | COc1cc(OC)cc(-c2nn(-c3ccc([N+](=O)[O-])cc3C#N)c(=S)n2CC2CCCO2)c1 (stereo not drawn) [TCMDC-134716] | 44.85 | 53.94 | 5.46
33 | N#Cc1cc([N+](=O)[O-])ccc1-n1nc(-c2cccc(Cl)c2)n(Cc2ccco2)c1=S [TCMDC-134717] | 64.43 | 77.59 | –
34 | COc1ccccc1CCNc1nc(C)cc(N[C@@H](Cc2ccccc2)C(=O)Nc2ccccc2)n1.O=C(O)C(F)(F)F [TCMDC-134804] | 57.50 | 38.80 | –
35 | CN(Cc1ccccc1)C1CCN(c2cc(NC(=O)c3cccc(F)c3)ccn2)CC1.O=C(O)C(F)(F)F [TCMDC-135000] | 52.34 | 57.11 | –
36 | Nc1ncnc2cc(-c3cccc(S(N)(=O)=O)c3)sc12 [TCMDC-135294] | 103.63 | 97.06 | –
37 | Cc1[nH]c(C)c(-c2cccc(-c3ccc(OC(F)(F)F)cc3)c2)c(=O)c1Br [TCMDC-135303] | 52.85 | 65.81 | –
38 | COc1ccc2nc(-c3cc(-c4ccc(NC(=O)CN5CCOCC5)cc4)cnc3N)[nH]c2c1 [TCMDC-135373] | 111.93 | 79.71 | –

Row | Structure (SMILES) | % inhibition, Replicate A [%] | % inhibition, Replicate B [%] | IC50 [µM]
39 | COc1cc(C(=O)N2CCOC(CCN3CCC(c4ccc(Cl)cc4)CC3)(c3ccc(Cl)c(Cl)c3)C2)cc(OC)c1OC (stereo not drawn) [TCMDC-135566] | 63.32 | 35.61 | –
40 | CS(=O)(=O)Cc1ccc(Nc2nccc(-c3c(-c4cccc(NC(=O)c5c(F)cccc5F)c4)nn4ccccc34)n2)cc1 [TCMDC-135669] | 21.89 | 53.61 | –
41 | Cl.O=C(CC1CCCC1)N(CC1CCN(Cc2ccc(C(F)(F)F)cc2)CC1)c1ccc(N2CCOCC2)c(F)c1 [TCMDC-135855] | 65.53 | 32.88 | –
42 | O=C(Nc1ccc(Cl)cc1)N(CC1CC2CCC(C1)N2Cc1ccc(C(F)(F)F)cc1)c1ccc(N2CCOCC2)c(F)c1 (stereo not drawn) [TCMDC-135859] | 55.58 | 25.24 | –
43 | O=C(/C=C/c1ccc(Cl)c(Cl)c1)NCCCCCN1CCCN(C(=O)Nc2cc(Cl)nc(Cl)c2)CC1 [TCMDC-135888] | 61.66 | 48.73 | –
44 | Cc1nc2ccc(-c3ccc(OC(F)(F)F)cc3)cc2c(O)c1C#N [TCMDC-136129] | 117.05 | 93.07 | –
45 | Cc1[nH]cc(Br)c(=O)c1-c1ccc(Oc2ccc(OC(F)(F)F)cc2)cc1 [TCMDC-136197] | 35.07 | 51.32 | –
46 | CCc1ccc(NC(=O)c2ccc(CN3CCCN(CC4CCCCC4)CC3)cc2)cc1.O=C(O)C(F)(F)F [TCMDC-136437] | 48.61 | 52.92 | –
47 | CC(C)COc1ccc(Cl)cc1Cc1ccc(-c2nc3cnc4ccccc4c3[nH]2)o1 [TCMDC-136650] | 61.46 | 37.55 | –
48 | Cc1cnc(C(=O)Nc2cccc(-c3ccc(-c4nc5cc(C(F)(F)F)ccc5[nH]4)s3)c2)cn1 [TCMDC-137028] | 1.65 | 57.27 | –
49 | Cn1ncc2ccc(Nc3nccc(-c4ccc5c(c4)c(N)nn5C)n3)cc21 [TCMDC-137049] | 55.92 | 51.61 | –
50 | Cc1nc2ccccc2c(O)c1-c1ccc(Cl)cc1 [TCMDC-137172] | 27.10 | 52.76 | –
51 | Cc1nc2nc(N)nc(N)c2c(C)c1Cc1ccccc1I.Cl [TCMDC-137243] | 8.94 | 52.96 | –
52 | CCc1cc2c3c(N)nc(N)nc3ccc2n1C(CC)CC [TCMDC-137309] | 48.79 | 56.84 | –
53 | CC(C)n1c(C(C)(C)C)cc2c3c(N)nc(N)nc3ccc21 [TCMDC-137311] | 95.58 | 90.85 | 0.634
54 | CNCCN(C)C(=O)Oc1c(Cl)c(C)nc(C)c1-c1ccc(Oc2ccc(OC(F)(F)F)cc2)cc1.Cl [TCMDC-137384] | 31.42 | 56.87 | –
55 | Cc1[nH]c(C)c(-c2ccc(Oc3cccc(Cl)c3)cc2)c(=O)c1Cl [TCMDC-137395] | 115.83 | 119.38 | –
56 | Cc1[nH]c(C)c(-c2ccc(S(=O)(=O)c3ccc(Cl)cc3)cc2)c(=O)c1Cl [TCMDC-137412] | 78.54 | 115.81 | –
